Reference: patent US20210122730A1, “GLUCOCORTICOID RECEPTOR MODULATORS” (ORIC Pharmaceuticals, Inc., priority 2017, published 2021)

Legend:
[1] = molecular target: T1, CYP2C8 (Homo sapiens, UniProt P10632); test: CYP Inhibition Assay (CYP2C8, human liver microsomes, paclitaxel substrate); assay type: in vitro ADME; conditions: pH 7.4; pooled human liver microsomes 0.1 mg/mL, probe substrate paclitaxel
T1 construct: Pooled human microsomes were obtained from Sekisui XenoTech, KS; tissue Sekisui XenoTech, KS; host or cells: pooled human liver microsomes
T1 sequence (P10632 1-490): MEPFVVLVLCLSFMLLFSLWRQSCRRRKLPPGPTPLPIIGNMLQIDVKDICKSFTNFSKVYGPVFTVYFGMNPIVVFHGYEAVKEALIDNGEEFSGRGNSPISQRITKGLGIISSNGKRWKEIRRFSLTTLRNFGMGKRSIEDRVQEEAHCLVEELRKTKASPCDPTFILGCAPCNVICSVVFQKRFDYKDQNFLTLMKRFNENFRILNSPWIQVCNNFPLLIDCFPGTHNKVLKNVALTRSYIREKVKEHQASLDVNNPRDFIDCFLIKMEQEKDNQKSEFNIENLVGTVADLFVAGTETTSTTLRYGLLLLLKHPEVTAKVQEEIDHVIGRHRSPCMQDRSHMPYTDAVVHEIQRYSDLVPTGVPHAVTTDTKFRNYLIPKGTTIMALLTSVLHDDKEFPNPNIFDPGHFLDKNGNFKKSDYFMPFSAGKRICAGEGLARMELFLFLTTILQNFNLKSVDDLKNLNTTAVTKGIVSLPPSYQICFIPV
Procedure, shortened: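 Pooled human liver microsomes (0.1 mg/mL) in 50 mM potassium phosphate pH 7.4 with compound, started with 1 mM NADPH, 5 min at 37° C, duplicate.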

[2] = molecular target: T2, GR (Homo sapiens, UniProt P04150); test: In Vitro GR Luciferase Reporter Assay (antagonist mode, CHO-K1-GR-MMTV-Luc reporter cells); assay type: cell-based; conditions: antagonist mode, 10 nM Dexamethasone
T2 construct: expressed in transfected cells; host or cells: CHO-K1
T2 sequence (P04150 1-777): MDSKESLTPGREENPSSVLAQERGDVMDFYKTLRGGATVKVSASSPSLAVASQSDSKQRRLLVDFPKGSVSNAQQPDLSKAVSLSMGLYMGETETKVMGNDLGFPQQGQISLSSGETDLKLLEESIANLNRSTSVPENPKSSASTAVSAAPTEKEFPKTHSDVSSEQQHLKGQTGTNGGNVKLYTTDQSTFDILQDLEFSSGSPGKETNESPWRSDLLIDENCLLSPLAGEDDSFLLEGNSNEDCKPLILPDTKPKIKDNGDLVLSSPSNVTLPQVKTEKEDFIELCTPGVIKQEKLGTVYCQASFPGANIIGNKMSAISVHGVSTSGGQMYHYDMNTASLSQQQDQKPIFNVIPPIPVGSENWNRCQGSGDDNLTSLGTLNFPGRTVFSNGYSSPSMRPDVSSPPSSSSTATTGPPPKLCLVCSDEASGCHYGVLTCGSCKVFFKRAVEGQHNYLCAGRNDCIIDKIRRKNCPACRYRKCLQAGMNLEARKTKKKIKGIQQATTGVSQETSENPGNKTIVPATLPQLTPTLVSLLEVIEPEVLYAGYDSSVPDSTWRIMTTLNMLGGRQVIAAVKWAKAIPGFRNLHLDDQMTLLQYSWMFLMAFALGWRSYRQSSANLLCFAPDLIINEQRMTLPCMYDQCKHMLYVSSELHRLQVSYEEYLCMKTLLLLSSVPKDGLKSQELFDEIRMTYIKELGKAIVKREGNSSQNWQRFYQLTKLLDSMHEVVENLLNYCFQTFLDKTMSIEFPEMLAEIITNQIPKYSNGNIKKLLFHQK
Procedure, shortened: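 CHO-K1-GR-MMTV-Luc cells in phenol red-free DMEM with 10% CSS, stimulated with 10 nM dexamethasone (final) and treated with 8-point 1:5 compound dilutions for about 18-24 h at 37° C. Luciferase measured by OneGlo luminescence; IC50 derived for inhibition of GR activity.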

Row | SMILES | inhibition at 5 min [1] [%] | IC50 [2] [nM]
1 | Cn1cc(S(=O)(=O)N(C2CC2)[C@H]2CCC3=Cc4c(cnn4-c4ccc(F)cc4)C[C@]3(C(=O)c3cc(Cl)ccn3)C2)nn1 [Example 268, N-((4aS,6S)-4a-(4-chloropicolinoyl)-1-(4-fluorophenyl)-4,4a,5,6,7,8-hexahydro-1H-benzo[f]indazol-6-yl)-N-cyclopropyl-1-methyl-1H-1,2,3-triazole-4-sulfonamide] | 50 to 75 | ≤ 100
2 | CC(C)N([C@H]1CCC2=Cc3c(cnn3-c3ccc(F)cc3)C[C@]2(C(=O)c2cc(Cl)ccn2)C1)S(=O)(=O)c1cnn(C)n1 [Example 269, N-((4aS,6S)-4a-(4-chloropicolinoyl)-1-(4-fluorophenyl)-4,4a,5,6,7,8-hexahydro-1H-benzo[f]indazol-6-yl)-N-isopropyl-2-methyl-2H-1,2,3-triazole-4-sulfonamide] | 75 to 90 | ≤ 100
3 | O=C(c1cc(C(F)(F)F)ccn1)[C@]12Cc3cnn(-c4ccc(F)cc4)c3C=C1CC[C@H](N(CC1CC1)S(=O)(=O)c1ccc(F)cc1)C2 [Example 273, N-(cyclopropylmethyl)-4-fluoro-N-((4aS,6S)-1-(4-fluorophenyl)-4a-(4-(trifluoromethyl)picolinoyl)-4,4a,5,6,7,8-hexahydro-1H-benzo[f]indazol-6-yl)benzenesulfonamide] | ≤ 25 | ≤ 100
4 | CC(C)N([C@H]1CCC2=Cc3c(cnn3-c3ccc(F)cc3)C[C@]2(C(=O)c2ncc(C(F)(F)F)s2)C1)S(=O)(=O)c1cn(C)nn1 [Example 282, N-((4aS,6S)-1-(4-fluorophenyl)-4a-(5-(trifluoromethyl)thiazole-2-carbonyl)-4,4a,5,6,7,8-hexahydro-1H-benzo[f]indazol-6-yl)-N-isopropyl-1-methyl-1H-1,2,3-triazole-4-sulfonamide] | 25 to 50 | ≤ 100
5 | CC(C)N([C@H]1CCC2=Cc3c(cnn3-c3ccc(F)cc3)C[C@]2(C(=O)c2ncc(C(F)(F)F)s2)C1)S(=O)(=O)c1ccc(Cl)nc1 [Example 283, 6-chloro-N-((4aS,6S)-1-(4-fluorophenyl)-4a-(5-(trifluoromethyl)thiazole-2-carbonyl)-4,4a,5,6,7,8-hexahydro-1H-benzo[f]indazol-6-yl)-N-isopropylpyridine-3-sulfonamide] | ≤ 25 | ≤ 100
6 | O=C(c1cc(C(F)(F)F)ccn1)[C@]12Cc3cnn(-c4ccc(F)cc4)c3C=C1CC[C@H](N(C1CC1)S(=O)(=O)c1ccc(Cl)cn1)C2 [Example 287, 5-chloro-N-cyclopropyl-N-((4aS,6S)-1-(4-fluorophenyl)-4a-(4-(trifluoromethyl)picolinoyl)-4,4a,5,6,7,8-hexahydro-1H-benzo[f]indazol-6-yl)pyridine-2-sulfonamide] | 25 to 50 | ≤ 100
7 | Cn1cc(S(=O)(=O)N(CC(F)(F)F)[C@H]2CCC3=Cc4c(cnn4-c4ccc(F)cc4)C[C@]3(C(=O)c3ncc(C(F)(F)F)s3)C2)nn1 [Example 290, N-((4aS,6S)-1-(4-fluorophenyl)-4a-(5-(trifluoromethyl)thiazole-2-carbonyl)-4,4a,5,6,7,8-hexahydro-1H-benzo[f]indazol-6-yl)-1-methyl-N-(2,2,2-trifluoroethyl)-1H-1,2,3-triazole-4-sulfonamide] | 25 to 50 | ≤ 100
8 | Cn1cnc(S(=O)(=O)N(CC(F)(F)F)[C@H]2CCC3=Cc4c(cnn4-c4ccc(F)cc4)C[C@]3(C(=O)c3ncc(C(F)(F)F)s3)C2)c1 [Example 293, N-((4aS,6S)-1-(4-fluorophenyl)-4a-(5-(trifluoromethyl)thiazole-2-carbonyl)-4,4a,5,6,7,8-hexahydro-1H-benzo[f]indazol-6-yl)-1-methyl-N-(2,2,2-trifluoroethyl)-1H-imidazole-4-sulfonamide] | ≤ 25 | ≤ 100
9 | O=C(c1cc(C(F)(F)F)ccn1)[C@]12Cc3cnn(-c4ccc(F)cc4)c3C=C1CC[C@H](N(CC1CC1)S(=O)(=O)c1ccc(Cl)nc1)C2 [Example 294, 6-chloro-N-(cyclopropylmethyl)-N-((4aS,6S)-1-(4-fluorophenyl)-4a-(4-(trifluoromethyl)picolinoyl)-4,4a,5,6,7,8-hexahydro-1H-benzo[f]indazol-6-yl)pyridine-3-sulfonamide] | ≤ 25 | ≤ 100
10 | CC(C)N([C@H]1CCC2=Cc3c(cnn3-c3ccc(F)cc3)C[C@]2(C(=O)c2cc(F)ccn2)C1)S(=O)(=O)c1cn(C)nn1 [Example 295, N-((4aS,6S)-1-(4-fluorophenyl)-4a-(4-fluoropicolinoyl)-4,4a,5,6,7,8-hexahydro-1H-benzo[f]indazol-6-yl)-N-isopropyl-1-methyl-1H-1,2,3-triazole-4-sulfonamide] | 50 to 75 | ≤ 100

Continued, values first:

Row | inhibition at 5 min [1] [%] | IC50 [2] [nM] | SMILES
11 | ≤ 25 | ≤ 100 | Cn1ccc(S(=O)(=O)[C@H]2CCC3=Cc4c(cnn4-c4ccc(F)cc4)C[C@]3(C(=O)c3ccc(C(F)(F)F)cn3)C2)n1 [Example 272, ((4aS,6S)-1-(4-fluorophenyl)-6-((1-methyl-1H-pyrazol-3-yl)sulfonyl)-1,4,5,6,7,8-hexahydro-4aH-benzo[f]indazol-4a-yl)(5-(trifluoromethyl)pyridin-2-yl)methanone]
12 | 50 to 75 | ≤ 100 | CC(C)N([C@H]1CCC2=Cc3c(cnn3-c3ccc(F)cc3)C[C@]2(C(=O)c2cc(C(F)(F)F)ccn2)C1)S(=O)(=O)c1ccc(Cl)nc1 [Example 279, 6-chloro-N-((4aS,6S)-1-(4-fluorophenyl)-4a-(4-(trifluoromethyl)picolinoyl)-4,4a,5,6,7,8-hexahydro-1H-benzo[f]indazol-6-yl)-N-isopropylpyridine-3-sulfonamide]
13 | 25 to 50 | ≤ 100 | Cn1cc(S(=O)(=O)N(CC(F)(F)F)[C@H]2CCC3=Cc4c(cnn4-c4ccc(F)cc4)C[C@]3(C(=O)c3cc(Cl)ccn3)C2)cn1 [Example 280, N-((4aS,6S)-4a-(4-chloropicolinoyl)-1-(4-fluorophenyl)-4,4a,5,6,7,8-hexahydro-1H-benzo[f]indazol-6-yl)-1-methyl-N-(2,2,2-trifluoroethyl)-1H-pyrazole-4-sulfonamide]
14 | 75 to 90 | ≤ 100 | CC(C)N([C@H]1CCC2=Cc3c(cnn3-c3ccc(F)cc3)C[C@]2(C(=O)c2cc(C(F)(F)F)ccn2)C1)S(=O)(=O)c1cn(C)nn1 [Example 286, N-((4aS,6S)-1-(4-fluorophenyl)-4a-(4-(trifluoromethyl)picolinoyl)-4,4a,5,6,7,8-hexahydro-1H-benzo[f]indazol-6-yl)-N-isopropyl-1-methyl-1H-1,2,3-triazole-4-sulfonamide]
15 | ≤ 25 | ≤ 100 | Cn1ccc(S(=O)(=O)N([C@H]2CCC3=Cc4c(cnn4-c4ccc(F)cc4)C[C@]3(C(=O)c3cc(Cl)ccn3)C2)[C@H]2C[C@@](C)(O)C2)n1 [Example 288, N-((4aS,6S)-4a-(4-chloropicolinoyl)-1-(4-fluorophenyl)-4,4a,5,6,7,8-hexahydro-1H-benzo[f]indazol-6-yl)-N-((1s,3R)-3-hydroxy-3-methylcyclobutyl)-1-methyl-1H-pyrazole-3-sulfonamide]
16 | ≤ 25 | ≤ 100 | Cn1ccc(S(=O)(=O)[C@@]2(F)CCC3=Cc4c(cnn4-c4ccc(F)cc4)C[C@]3(C(=O)c3ccc(C(F)(F)F)cn3)C2)n1 [Example 289, ((4aS,6S)-6-fluoro-1-(4-fluorophenyl)-6-((1-methyl-1H-pyrazol-3-yl)sulfonyl)-1,4,5,6,7,8-hexahydro-4aH-benzo[f]indazol-4a-yl)(5-(trifluoromethyl)pyridin-2-yl)methanone]
